Activity calls are given as the source filed them. The calls are words filed in the database; no cut-off is given here.
Legend:
[1] = system: CNE-2; assay: Cytotoxicity against human CNE2 cells assessed as reduction in cell viability after 3 days by MTT assay; type: functional, cell-based
[2] = system: CNE; assay: Cytotoxicity against human CNE1 cells assessed as reduction in cell viability after 3 days by MTT assay; type: functional, cell-based

Structure (SMILES) | Activity [1] | Activity [2] | IC50 ([1]; CNE-2, 72 h) [µM] | IC50 ([2]; 72 h) [µM]
CCOC(=O)CCCn1ccc(CC[C@@]2(O)[C@H](C)CC[C@H]3C(C)(C)CCC[C@@]32C)c1C#N | inactive | inactive | – | –
CC(=O)O[C@@H]1C[C@@H](C)[C@](O)(CCc2ccn(CCO)c2C#N)[C@@]2(C)CCCC(C)(C)[C@H]12 | inactive | inactive | – | –
C[C@@H]1CC[C@H]2C(C)(C)CCC[C@]2(C)[C@@]1(O)CCc1cc[nH]c1C#N | – | – | > 10 | 8.7
CC(=O)O[C@H]1CC[C@@]2(C)[C@@H](CC[C@@H](C)[C@]2(O)CCc2ccn(CCCC(=O)O)c2C#N)C1(C)C | inactive | inactive | – | –

From ChEMBL document CHEMBL4118045, “Vitepyrroloids A-D, 2-Cyanopyrrole-Containing Labdane Diterpenoid Alkaloids from the Leaves of Vitex trifolia” (J Nat Prod, 2017)
